In patent US5891917A, “Certain acrylonitrile-sulfonamide derivatives” (Sugen, Inc., priority 1997, dated 1999):

How the values were obtained:
[1] = tested on: chimeric receptor containing the EGFR extracellular domain and the HER2 intracellular kinase domain; experiment: EGFR-HER2 chimeric receptor whole cell kinase ELISA (3T3); assay type: cell-based; settings: NIH3T3 cells with EGFR/HER2 chimera, 100 nM EGF
Text: (§1) The following examples illustrate the ability of the exemplary compounds to inhibit receptor tyrosine kinases, such as HER2 and/or EGFR. The following target cells were used for cellular kinase assays: NIH3T3 clone C7 (Honegger et al., supra) engineered to over-express human EGF receptor; NIH3T3 cells engineered to over-express a chimeric receptor containing the EGFR extracellular domain and the HER2 intracellular kinase domain; the human mammary carcinoma line BT474 (ATCC HTB2) expressing HER2; and the human glioblastoma line U1242 that expresses PDGFR-beta. Growth assays were carried out using human mammary epithelial SKBR3 (ATCC HTB30) cells (SKBR3 cells over-express HER2), SKOV3 (ATCC HTB77) human ovarian cancer cell line (SKOV3 cells also over-express HER2), A431 cells (A431 cells over-express EGFR) MCF7 human breast carcinoma cells, MCF7 cells overexpressing the HER2 kinase (MCF7-HER2), NIH3T3 cells, and NIH3T3 cells overexpressing the HER2 kinase (3T3-HER2.
EGFR-HER2 Chimeric Recetor
HER2 kinase activity (EGFR-3T3) in whole cells was measured as described below:
The materials and regeants are identical to these used in example 1, the EGFR whole cell kinase assay.
A. Coat ELISA plates (Corning, 96 well, Cat. #25805-96) with 05-101 antibody at 0.5 μg per well in PBS, 100 μl final volume/well, and store overnight at 4° C. Coated plates are good for up to 10 days when stored at 4° C.
B. On day of use, remove coating buffer and replace with 100 μl blocking buffer (5% Carnation Instant Non-Fat Dry Milk in PBS). Incubate the plate, shaking, at room temperature (about 23° C. to 25° C.) for 30 minutes. Just prior to use, remove blocking buffer and wash plate 4 times with TBST buffer.
A. An NIH3T3 cell line overexpressing a chimeric receptor containing the EGFR extracellular domain and extracellular HER2 kinase domain can be used for this assay.
B. Choose dishes having 80-90% confluence for the experiment. Trypsinize cells and stop reaction by adding 10% fetal bovine serum. Suspend cells in DMEM medium (10% CS DMEM medium) and centrifuge once at 1500 rpm, at room temperature for 5 minutes.
C. Resuspend cells in seeding medium (DMEM, 0.5% bovine serum), and count the cells using trypan blue. Viability above 90% is acceptable. Seed cells in DMEM medium (0.5% bovine serum) at a density of 10,000 cells per well, 100 μl per well, in a 96 well microtiter plate. Incubate seeded cells in 5% CO2 at 37° C. for about 40 hours.
A. Check seeded cells for contamination using an inverted microscope. Dilute drug stock (10 mg/ml in DMSO) 1:10 in DMEM medium, then transfer 5 l to a […] well for a final drug dilution of 1:200 and a final DMSO concentration of 1%. Control wells receive DMSO alone. Incubate in 5% CO2 at 37° C. for two hours.
B. Prepare EGF ligand: dilute stock EGF in DMEM so that upon transfer of 10 μl dilute EGF (1:12 dilution), 100 nM final concentration is attained.
D. After 120 minutes incubation with drug, add prepared […] ligand to cells, 10 μl per well, to a final concentration of 100 nM. Control wells receive DMEM alone. Incubate, shaking, at room temperature, for 5 minutes.
E. Remove drug, EGF, and DMEM. Wash cells twice with PBS. Transfer HNTG* to cells, 100 μl per well. Place on ice for 5 minutes. Meanwhile, remove blocking buffer from other ELISA plate and wash with TBST as described above.
F. With a pipette tip securely fitted to a micropipettor, scrape cells from plate and homogenize cell material by repeatedly aspirating and dispensing the HNTG* lysis buffer. Transfer lysate to a coated, blocked, and washed ELISA plate. Incubate shaking at room temperature for one hour.
G. Remove lysate and wash 4 times with TBST. Transfer freshly diluted anti-Ptyr antibody to ELISA plate at 100 μl per well. Incubate shaking at room temperature for 30 minutes in the presence of the anti-Ptyr antiserum (1:3000 dilution in TBST).
H. Remove the anti-Ptyr antibody and wash 4 times with TBST. […]

PDGFR-beta = target: T1, PDGFR-beta (Homo sapiens, UniProt P09619); experiment: PDGF-R Cellular Assay (ELISA); assay type: cell-based; settings: U1242 MG cells, 100 ng/ml PDGF-BB
T1 construct: the human glioblastoma line U1242 that expresses PDGFR-beta; endogenous in cells; host or cells: U1242 MG human glioblastoma cells
T1 sequence (P09619 33-1106): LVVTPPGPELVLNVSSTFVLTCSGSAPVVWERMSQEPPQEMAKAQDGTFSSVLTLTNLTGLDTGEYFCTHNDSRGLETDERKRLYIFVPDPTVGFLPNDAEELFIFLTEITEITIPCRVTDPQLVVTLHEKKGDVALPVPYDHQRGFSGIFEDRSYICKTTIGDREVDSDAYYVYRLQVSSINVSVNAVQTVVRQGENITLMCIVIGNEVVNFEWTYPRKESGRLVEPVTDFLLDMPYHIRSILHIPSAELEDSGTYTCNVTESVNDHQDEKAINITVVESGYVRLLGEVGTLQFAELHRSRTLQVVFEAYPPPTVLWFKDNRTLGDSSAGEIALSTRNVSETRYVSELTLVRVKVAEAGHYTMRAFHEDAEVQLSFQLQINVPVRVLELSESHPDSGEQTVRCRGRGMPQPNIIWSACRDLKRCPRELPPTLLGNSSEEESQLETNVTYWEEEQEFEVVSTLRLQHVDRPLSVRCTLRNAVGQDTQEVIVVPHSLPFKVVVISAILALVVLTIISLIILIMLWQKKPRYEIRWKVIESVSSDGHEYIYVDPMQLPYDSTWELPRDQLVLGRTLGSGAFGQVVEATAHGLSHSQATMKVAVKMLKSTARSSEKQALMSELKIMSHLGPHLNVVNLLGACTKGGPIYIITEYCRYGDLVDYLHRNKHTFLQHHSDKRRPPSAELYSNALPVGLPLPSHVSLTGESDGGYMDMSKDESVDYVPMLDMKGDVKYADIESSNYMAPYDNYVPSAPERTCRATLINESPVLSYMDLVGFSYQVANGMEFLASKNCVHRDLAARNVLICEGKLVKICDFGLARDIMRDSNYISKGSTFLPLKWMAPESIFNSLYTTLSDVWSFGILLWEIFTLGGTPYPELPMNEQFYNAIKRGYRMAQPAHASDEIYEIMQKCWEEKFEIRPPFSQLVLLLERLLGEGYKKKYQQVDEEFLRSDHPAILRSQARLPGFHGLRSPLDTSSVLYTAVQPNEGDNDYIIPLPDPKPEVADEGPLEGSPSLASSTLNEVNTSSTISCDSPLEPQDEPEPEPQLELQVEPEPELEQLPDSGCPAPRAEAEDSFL
Text: as §1
The PDGF cellular kinase assay was carried out as follows: cells are lysed in 0.2M Hepes, 0.15M NaCl, 10% V/V glycerol, 0.04% Triton X-100, 5 mM EDTA, 5 rnM Na+ vanadate and 2 mM Na+ pyrophosphate; cell lysates are then added to an ELISA plate coated with an anti-PDGF receptor antibody (Genzyme); ELISA plates are coated at 0.5 μg of antibody/well in 150 μl of PBS for 18 hours at 4° C. prior to the addition of the lysate; the lysate is incubated in the coated plates for 1 hour and then washed four times in TBST (35 mM Tris-HCl pH 7.0, 0.15M NaCl, 0.1% Triton X100); anti-phosphotyrosine antibody (100 μl in PBS) is added and the mixture is incubated for 30 minutes at room temperature; the wells were then washed four times in TBST, a secondary antibody conjugated to POD (TAGO) is added to each well, and the treated well are incubated for 30 minutes at room temperature; the wells are then washed four times in TBST, ABTS/H2 O2 solution is added to each well and the wells are incubated for two minutes; absorbance is then measured at 410 nm.
U1242 MG cells were plated in 96-well plates at a concentration of 5×10^4 cells/well in cultured media containing 0.5% FBS. The cells were incubated for 24 hours. The cells were then treated with a particular compound for 2 hours followed by the addition of 100 ng/ml PDGF-BB and incubation for 10 minutes.
Cells were lysed in 0.2M Hepes, 0.15M NaCl, 10% V/V glycerol, 0.04% Triton X-100, 5 mM EDTA, 5 mM Na+ vanadate and 2 mM Na+ pyrophosphate. Cell lysates were then added to an ELISA plate coated with an anti-PDGF receptor antibody (Genzyme). ELISA plates were coated at 0.5 μg of antibody/well in 150 μl of PBS for 18 hours at 4° C. prior to the addition of the lysate.
The lysate was incubated in the coated plates for 1 hour and then washed four times in TBST (35 mM Tris-HCl pH 7.0, 0.15M NaCl, 0.1 % Triton X-100). Anti-phosphotyrosine antibody (100 μl in PBS) was added and the mixture was incubated for 30 minutes at room temperature. The wells were then washed four times in TBST, a secondary antibody conjugated to POD (TAGO) was added to each well, and the treated well were incubated for 30 minutes at room temperature. The wells were then washed four times in TBST, ABTS/H2 O2 solution was added to each well and the wells were incubated for two minutes. Absorbance was then measured at 410 nm.

| IC50 [1] | IC50 (PDGFR-beta) | Compound |
| --- | --- | --- |
| 17.2 µM | > 50 µM | CC(C)c1cc(/C=C(\C#N)S(=O)(=O)c2ccccc2)cc(C(C)C)c1O [Compound 731] |
| 20.9 µM | 50 µM | CC(C)c1cc(/C=C(\C#N)S(=O)(=O)NCc2ccccc2)cc(C(C)C)c1O [Compound 732] |
| 83.5 µM | > 50 µM | N#C/C(=C\c1ccc(O)cc1Cl)S(=O)(=O)NCc1ccccc1 [Compound 733] |
| 21.7 µM | > 50 µM | N#C/C(=C\c1ccc(O)cc1Cl)S(=O)(=O)NCCCc1ccccc1 [Compound 734] |
| 57.4 µM | > 100 µM | CC(C)(C)c1cc(/C=C(\C#N)S(=O)(=O)Cc2cccc(C(F)(F)F)c2)cc(C(C)(C)C)c1O [Compound 735] |
| 22.7 µM | > 100 µM | CC(C)c1cc(/C=C(\C#N)S(=O)(=O)Cc2cccc(C(F)(F)F)c2)cc(C(C)C)c1O [Compound 736] |
| 32 µM | > 100 µM | CC(C)c1cc(/C=C(\C#N)S(=O)(=O)c2cccs2)cc(C(C)C)c1O [Compound 737] |
| 36.4 µM | > 100 µM | CC(C)c1cc(/C=C(\C#N)S(=O)(=O)c2ccsc2)cc(C(C)C)c1O [Compound 738] |
| > 100 µM | > 100 µM | Cc1cc(/C=C(\C#N)S(=O)(=O)Cc2cccc(C(F)(F)F)c2)cc(C)c1O [Compound 739] |
| > 100 µM | > 100 µM | CC(C)(C)c1cc(/C=C(\C#N)S(=O)(=O)c2ccc(F)cc2)cc(C(C)(C)C)c1O [Compound 740] |
| 13.9 µM | > 100 µM | CC(C)c1cc(/C=C(\C#N)S(=O)(=O)c2ccc(F)cc2)cc(C(C)C)c1O [Compound 741, (E)-3-(3,5-Diisopropyl-4-hydroxyphenyl)-2-(4-fluorophenylsulfonyl)acrylonitrile] |
| 27.8 µM | > 100 µM | CC(C)(C)c1cc(/C=C(\C#N)S(=O)(=O)c2cccs2)cc(C(C)(C)C)c1O [Compound 742] |
|  | > 100 µM | N#C/C(=C\c1ccc(O)c(O)c1)S(=O)(=O)c1cccs1 [Compound 743, (E)-3-(3,4-Dihydroxyphenyl)-2-[(thien-2-yl)sulfonyl]acrylonitrile] |
|  | > 100 µM | Cc1cc(/C=C(\C#N)S(=O)(=O)c2ccc(F)cc2)cc(C)c1O [Compound 744] |
| 8.1 µM | > 100 µM | CC(C)(C)c1cc(/C=C(\C#N)S(=O)(=O)c2ccsc2)cc(C(C)(C)C)c1O [Compound 746] |
|  | > 50 µM | CC(C)c1cc(/C=C(\C#N)S(=O)(=O)c2ccccn2)cc(C(C)C)c1O [Compound 747] |
|  | > 100 µM | Cc1cc(/C=C(\C#N)S(=O)(=O)c2ccccc2)cc(C)c1O [Compound 748] |
